Reference: patent US7244753B2, “Cyclooxygenase-2 selective inhibitors, compositions and methods of use” (NitroMed, Inc., priority 2002, dated 2007)

Key:
[1] = test system: Rat Carrageenan Air-Pouch; assay: Rat carrageenan air-pouch; assay type: in vivo; conditions: 45 μmol/kg by oral intubation 1 hour prior to carrageenan
Protocol: The carrageenan air pouch model was performed as described by Sedgwick, A. D., et al., Agents Actions 18, 429-438, (1986) and Masferrer et al., Proc. Natl. Acad. Sci. 91, 3228-3232 (1994). Air pouches were produced by subcutaneous injection of 20 ml of sterile air on day (−6) into the intrascapular area of the back of the anesthesia rat (male CD, Charles River, 175-200 g). An additional 10 mL of sterile air was injected into the pouch 3 days later to keep the space open and to assist in the development of the interior membrane. Six days after the initial air injection, 1 mL of a 1% solution of carrageenan (Sigma, lambda fraction) dissolved in pyrogen-free saline was injected directly into the pouch to produce an inflammatory response. The test compound in vehicle (3 mL/rat, 0.5% Methocel) was administered by oral intubation 1 hour prior to carrageenan injection into the inflammatory pouch. After 4 hours the exudate was removed by pipette into a calibrated centrifuge tube and the volume measured. The number of leukocytes in the exudate was determined by cell counting with a Beckman Coulter Particle Counter with the lower threshold set to exclude red blood cells. The exudate samples were assayed without further processing for PGE2 (prostaglandin E2) using PGE2 EIA kit-Monoclonal, friom Cayman Chemical Co. (Ann Arbor, Mich., Catalogue No. 514010). […]

Human COX-2 = target: T1, Human COX-2 (Homo sapiens, UniProt P35354); assay: COX-2 enzyme activity in human whole blood (LPS-induced, thromboxane B2 EIA); assay type: cell-based; conditions: for inhibition at 1 µM: 1 μM test compound; for inhibition at 10 µM: 10 μM test compound
T1 construct: Human blood (≈50 mL) from male or female donors who had not received any aspirin or NSAIDs for 14 days was collected; endogenous in cells; host or cells: human whole blood from donors, heparinised, COX-2 induced with E. coli LPS
T1 sequence (P35354 18-604): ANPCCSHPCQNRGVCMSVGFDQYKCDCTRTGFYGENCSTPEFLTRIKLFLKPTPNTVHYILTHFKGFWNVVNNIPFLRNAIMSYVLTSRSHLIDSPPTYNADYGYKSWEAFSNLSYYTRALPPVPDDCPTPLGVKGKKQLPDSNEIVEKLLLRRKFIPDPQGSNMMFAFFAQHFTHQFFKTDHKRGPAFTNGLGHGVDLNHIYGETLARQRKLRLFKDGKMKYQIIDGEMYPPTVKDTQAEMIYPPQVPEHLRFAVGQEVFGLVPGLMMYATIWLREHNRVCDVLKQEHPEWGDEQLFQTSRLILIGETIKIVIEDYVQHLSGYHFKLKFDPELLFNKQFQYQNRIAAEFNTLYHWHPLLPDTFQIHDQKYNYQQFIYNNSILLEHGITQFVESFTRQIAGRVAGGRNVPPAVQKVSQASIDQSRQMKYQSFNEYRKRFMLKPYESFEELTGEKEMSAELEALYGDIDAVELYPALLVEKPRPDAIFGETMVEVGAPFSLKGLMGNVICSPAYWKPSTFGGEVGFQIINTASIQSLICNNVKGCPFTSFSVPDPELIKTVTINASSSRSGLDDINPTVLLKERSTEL
Protocol: (§1) Human blood (≈50 mL) from male or female donors who had not received any aspirin or NSAIDs for 14 days was collected at two local area blood donor centers and placed in polypropylene syringes containing sodium heparin (20 units per mL blood, final concentration). The blood was transported to the laboratory on ice packs and used within 1.5 hours of collection. Upon receipt in the laboratory, the blood was allowed to come to room temperature for 15 minutes prior to distribution in 1 mL aliquots per well of 24 well tissue culture plates. The plates were then placed on a gently rotating platform shaker in a 5% CO2 incubator at 37° C. for 15 minutes. Test compounds were dissolved in DMSO, at 1000 fold the final desired concentration, and further diluted, as indicated, in DMSO. One μL of each dilution of the test compound was added per well, in duplicate wells; wells not receiving test compound (e.g., basal, background or control wells) received 1 μL DMSO.
(§2) (Basal or background wells not incubated with LPS received 2 μL of DMSO.) For the stimulation of COX-1, the calcium ionophore, A23187 (free acid from Sigma Chemical Co., St. Louis, Mo., Catalogue No. C7522) was added at 25 μM (1 μL of 25 mM stock in DMSO) to separate wells 4.5 hours after the addition of the test compound. (Again, basal, background or control wells not stimulated with A23187 received 1 μL of DMSO.) At 5 hours after the addition of the test compound, all incubations were terminated by placement on ice and the addition of 2 mM EGTA (100 μL of 20 mM EGTA, tetrasodium, in PBS (phosphate buffered saline) without Ca^++ and Mg^++, pH 7.2)). The resulting solutions, were transferred by polyethylene transfer pipettes to 15 mL polypropylene centrifuge tubes and centrifuged at 1200 g for 10 minutes at 4° C. One hundred μL of plasma was removed from each blood sample and added to 1 mL of methanol in new 15 mL polypropylene centrifuge tubes, vortexed, and stored overnight at −20° C. The next day, the samples were centrifuged at 2000 g for 10 minutes at 4° C. and the supernatants transferred to glass tubes and evaporated to dryness.

Human COX-1 = target: T2, Human COX-1 (Homo sapiens, UniProt P23219); assay: COX-1 enzyme activity in human whole blood (A23187-stimulated, thromboxane B2 EIA); assay type: cell-based; conditions: 100 μM test compound
T2 construct: Human blood (≈50 mL) from male or female donors who had not received any aspirin or NSAIDs for 14 days was collected; endogenous in cells; host or cells: human whole blood from donors, heparinised, stimulated with calcium ionophore A23187
Protocol: as §1, with “The assay for COX-1 and COX-2 enzyme activity, in the human whole blood was performed as described in Brideau et al., Inflamm Res., 45: 68-74 (1996)). Human” for “Human”
as §2, with “To induce COX-2, lipopolysaccharide (LPS) from E. coli (LPS, serotype 026:B6 or serotype 0127:B8, Sigma Chemical Co., St. Louis, Mo., Catalogue No. L3755 or L3129, respectively) was added at 10 μg/mL (2 μL of 5 mg/mL LPS in DMSO) to appropriate wells 15 minutes after the addition of the test compound. (Basal” for “(Basal”, “dryness. The samples were assayed for thromboxane B2 using EIA kits supplied by Cayman Chemical Co. (Ann Arbor, Mich., Catalogue No. 519031) in duplicate wells after reconstitution with EIA Buffer and appropriate dilution (2000 fold for COX-1 and 500 fold for Cox-2 samples).” for “dryness.”
The % inhibition for COX-1 and COX-2 enzyme activity in human whole blood by the test compounds, at the indicated concentrations, are given in Table 1.

T2 sequence (P23219 24-599): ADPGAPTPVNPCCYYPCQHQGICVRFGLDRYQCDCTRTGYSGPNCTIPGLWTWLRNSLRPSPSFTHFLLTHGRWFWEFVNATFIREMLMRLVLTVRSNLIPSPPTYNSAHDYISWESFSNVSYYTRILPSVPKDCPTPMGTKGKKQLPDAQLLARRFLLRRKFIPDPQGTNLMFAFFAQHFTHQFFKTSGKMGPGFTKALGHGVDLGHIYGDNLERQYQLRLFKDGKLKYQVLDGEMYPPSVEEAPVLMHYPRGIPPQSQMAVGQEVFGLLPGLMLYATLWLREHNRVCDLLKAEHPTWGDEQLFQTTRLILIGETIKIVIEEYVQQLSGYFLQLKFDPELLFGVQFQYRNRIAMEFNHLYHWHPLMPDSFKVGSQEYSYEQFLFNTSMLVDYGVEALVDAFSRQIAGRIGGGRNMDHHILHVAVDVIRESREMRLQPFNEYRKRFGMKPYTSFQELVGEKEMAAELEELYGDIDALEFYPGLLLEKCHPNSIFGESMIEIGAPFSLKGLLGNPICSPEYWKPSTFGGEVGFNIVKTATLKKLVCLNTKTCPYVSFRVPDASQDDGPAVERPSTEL

With `CS(=O)(=O)c1ccc(-c2cc(COCCO[N+](=O)[O-])nn2CC2CCCCC2)cc1` [Example 2f, 4-(1-(Cyclohexylmethyl)-3-((2-(nitrooxy)ethoxy)methyl)pyrazol-5-yl)-1-(methylsulfonyl)benzene] the “PGE-2 (% Inhibition at @ 45 μmol/kg)” value ([1]; exudate PGE2 after 4 hours) was 85%, the “Cell Infiltration (% inhibition @ 45 μmol/kg)” value ([1]; exudate leukocytes after 4 hours) was 42% and the inhibition at 1 µM (Human COX-2) was 20%. For the same molecule, the inhibition at 10 µM (Human COX-2) was 75% and the inhibition at 100 µM (Human COX-1) was 70%.

Molecule `CS(=O)(=O)c1ccc(-c2cc(CO[N+](=O)[O-])nn2Cc2ccccc2)cc1` [Example 3d, 4-(Methylsulfonyl)-1-(3-((nitrooxyl)methyl)-1-benzylpyrazol-5-yl)benzene] has a melting point of 93 to 94 °C, an inhibition at 1 µM (Human COX-2) of 20% and an inhibition at 10 µM (Human COX-2) of 40%. It also gave an inhibition at 100 µM (Human COX-1) of 55%.
